Laboratory results as given in US20060069132A1, “Azolecarboxamide herbicides” (priority 2004, published 2006).
Where two headings read alike, the source gives them in different places.

Experiments:
[1] = test system: soybean; experiment: Test C pre-/postemergence herbicide test; type: in vivo, Glycine max; conditions: Glycine max, pre-emergence, read-out: Plant response rating, Soybean
Outline: (§1)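 Greenhouse-grown plants were evaluated visually 12 to 14 days after treatment, with 100 meaning complete control and 0 no effect. Application was preemergence, or postemergence at 2 to 18 cm.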

[2] = test system: kochia; experiment: Test C pre-/postemergence herbicide test; type: in vivo, Kochia scoparia; conditions: Bassia scoparia, pre-emergence, read-out: Plant response rating, Kochia
Outline: as §1

[3] = test system: Surinam grass; experiment: Test C pre-/postemergence herbicide test; type: in vivo, Urochloa decumbens; conditions: Urochloa decumbens, pre-emergence, 312 h, read-out: Plant response rating, Surinam Grass
Outline: as §1

[4] = test system: common ragweed; experiment: Test C pre-/postemergence herbicide test; type: in vivo, Ambrosia elatior; conditions: Ambrosia artemisiifolia, pre-emergence, read-out: Plant response rating, Ragweed
Outline: as §1

[5] = test system: rice; experiment: Test C flooded paddy test; type: in vivo, Oryza sativa; conditions: Oryza sativa
Outline: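 Plants were grown to the 1- to 4-leaf stage (2–18 cm) and then treated postemergence, or grown to the 2-leaf stage for the flooded paddy test. They were held in a greenhouse for 12 to 14 days and then scored by eye against controls, where 0 is no effect and 100 is complete control.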

[6] = test system: morningglory; experiment: Test C pre-/postemergence herbicide test; type: in vivo, Ipomoea coccinea; conditions: Ipomoea, pre-emergence, read-out: Plant response rating, Morningglory
Outline: as §1

[7] = test system: velvetleaf; experiment: Test A pre-/postemergence herbicide test; type: in vivo, Abutilon theophrasti; conditions: Abutilon theophrasti, 240 h; for pest or weed control at 500 g/ha: 500 g ai/ha; for pest or weed control at 2000 g/ha: 2000 g ai/ha
Outline: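 Plants are held in greenhouse about ten days after treatment, then compared with untreated controls and scored 0 (no effect) to 100 (complete control). Preemergence dosing is a directed soil spray on sown sandy loam; postemergence dosing is spray to runoff at 2–10 cm height.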

[8] = test system: giant foxtail; experiment: Test C pre-/postemergence herbicide test; type: in vivo, Setaria faberi; conditions: Setaria faberi, pre-emergence, 312 h, read-out: Plant response rating, Foxtail, Giant
Outline: as §1

[9] = test system: smallflower umbrella sedge; experiment: Test C flooded paddy test; type: in vivo, Cyperus difformis; conditions: Cyperus difformis
[10] = test system: barnyardgrass; experiment: Test C flooded paddy test; type: in vivo, Echinochloa crus-galli; conditions: Echinochloa crus-galli
Outline: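 After a postemergence application at 1 to 4 leaves (plants 2–18 cm high), or at 2 leaves for barnyardgrass in flooded paddy, plants stayed in the greenhouse for 12 to 14 days. Damage was then judged visually relative to control plants, with 100 indicating complete control.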

[11] = test system: corn; experiment: Test C pre-/postemergence herbicide test; type: in vivo, Zea mays; conditions: Zea mays, pre-emergence, 312 h
Outline: as §1

[12] = 62 g ai/ha, preemergence, scale 0 to 100
[13] = 500 g ai/ha, scale 0 to 100 (0 no effect, 100 complete control), visual, 12 to 14 days
[14] = 125 g ai/ha, scale 0 (no effect) to 100 (complete control), visual, 12 to 14 days

`CCc1nn(C(C)(C)C)cc1C(=O)Nc1cc(C(=O)N(C)C)ccc1F` [Compound 222, N-[5-[(dimethylamino)carbonyl]-2-fluorophenyl]-1-(1,1-dimethylethyl)-3-ethyl-1H-pyrazole-4-carboxamide] showed a plant injury at 62 g/ha [1, 12] of 40%, a plant injury at 250 g/ha ([1]; 250 g ai/ha, scale 0-100) of 100% and a plant injury at 500 g/ha [1, 13] of 100%. For the same compound, the pest or weed control at 62 g/ha [2, 12] was 90%, the pest or weed control at 125 g/ha [2, 14] was 100% and the pest or weed control at 250 g/ha ([2]; 250 g ai/ha, scale 0-100) was 100%. The pest or weed control at 500 g/ha [2, 13] was 100%, the pest or weed control at 62 g/ha [3, 12] was 80% and the pest or weed control at 250 g/ha ([3]; 250 g ai/ha, scale 0-100) was 100%. It also gave a pest or weed control at 500 g/ha [3, 13] of 100%, a pest or weed control at 62 g/ha [4, 12] of 80% and a pest or weed control at 250 g/ha ([4]; 250 g ai/ha, scale 0-100) of 100%. It also gave a pest or weed control at 500 g/ha [4, 13] of 100%, a plant injury at 62 g/ha ([5]; 62 g ai/ha, scale 0 to 100 (0 no effect, 100 complete control), read-out: Rice plant response rating) of 30% and a plant injury at 125 g/ha ([5]; 125 g ai/ha, scale 0 to 100 (0 no effect, 100 complete control), read-out: Rice plant response rating) of 70%. For the same compound, the plant injury at 250 g/ha ([5]; 250 g ai/ha, scale of 0 to 100, 0 is no effect, 100 is complete control, read-out: Rice plant response rating) was 85%, the plant injury at 500 g/ha ([5]; 500 g ai/ha, visual rating after 12 to 14 days, scale 0 to 100 (0 no effect, 100 complete control), read-out: Plant response rating, Rice) was 85% and the pest or weed control at 62 g/ha [6, 12] was 0%. For the same compound, the pest or weed control at 125 g/ha [6, 14] was 20%, the pest or weed control at 250 g/ha ([6]; 250 g ai/ha, scale 0-100) was 30% and the pest or weed control at 500 g/ha [6, 13] was 100%. The pest or weed control at 500 g/ha ([7]; post-emergence, Postemergence, 0 to 100 scale, 0 no effect, 100 complete control, read-out: Velvetleaf plant response rating) was 80%, the pest or weed control at 2000 g/ha ([7]; post-emergence, Postemergence, 0 to 100 scale, 0 no effect, 100 complete control, read-out: Plant response rating, Velvetleaf) was 100% and the pest or weed control at 2000 g/ha ([7]; pre-emergence, Preemergence, visual rating, 0 to 100 scale (0 no effect, 100 complete control), read-out: Velvetleaf plant response rating) was 100%. The pest or weed control at 500 g/ha ([7]; pre-emergence, preemergence, visual injury, 0 to 100 scale (0 no effect, 100 complete control), read-out: Velvetleaf plant response rating) was 95%, the pest or weed control at 62 g/ha [8, 12] was 20% and the pest or weed control at 125 g/ha [8, 14] was 85%. It also gave a pest or weed control at 250 g/ha ([8]; 250 g ai/ha, scale 0-100) of 95%, a pest or weed control at 500 g/ha [8, 13] of 100% and a pest or weed control at 62 g/ha ([9]; 62 g ai/ha, scale 0 to 100 (0 no effect, 100 complete control), read-out: Sedge, Umbrella plant response rating) of 65%. The pest or weed control at 125 g/ha ([9]; 125 g ai/ha, scale 0 to 100 (0 no effect, 100 complete control), read-out: Sedge, Umbrella plant response rating) was 75%, the pest or weed control at 250 g/ha ([9]; 250 g ai/ha, scale of 0 to 100, 0 is no effect, 100 is complete control, read-out: Sedge, Umbrella plant response rating) was 85% and the pest or weed control at 500 g/ha ([9]; 500 g ai/ha, visual rating after 12 to 14 days, scale 0 to 100 (0 no effect, 100 complete control), read-out: Plant response rating, Sedge, Umbrella) was 90%. The pest or weed control at 62 g/ha ([10]; 62 g ai/ha, scale 0 to 100 (0 no effect, 100 complete control), read-out: Barnyardgrass plant response rating) was 15%, the pest or weed control at 125 g/ha ([10]; 125 g ai/ha, scale 0 to 100 (0 no effect, 100 complete control), read-out: Barnyardgrass plant response rating) was 75% and the pest or weed control at 250 g/ha ([10]; 250 g ai/ha, scale of 0 to 100, 0 is no effect, 100 is complete control, read-out: Barnyardgrass plant response rating) was 90%. For the same compound, the pest or weed control at 500 g/ha ([10]; 500 g ai/ha, visual rating after 12 to 14 days, scale 0 to 100 (0 no effect, 100 complete control), read-out: Plant response rating, Barnyardgrass) was 95%, the Corn plant response rating (crop injury, 0 = no effect, 100 = complete kill) at 62 g/ha [11, 12] was 0% and the Corn plant response rating (crop injury, 0 = no effect, 100 = complete kill) at 125 g/ha [11, 14] was 20%. The Corn plant response rating (crop injury, 0 = no effect, 100 = complete kill) at 250 g/ha ([11]; 250 g ai/ha, scale 0-100) was 60% and the Corn plant response rating (crop injury, 0 = no effect, 100 = complete kill) at 500 g/ha [11, 13] was 100%.
